Test results published in patent publication US12453735B2, “Treating cancer with a CCK receptor inhibitor and an immune checkpoint inhibitor” (GEORGETOWN UNIVERSITY, priority 2017, dated 2025).
Entries after “also recorded” stand apart in the source; their conditions may differ.

What was measured:
Panc02 cells [1] = test: Orthotopic Panc02 pancreatic tumors in immune competent C57BL/6 mice; type: in vivo, mouse
From the text: (§1) Animal Models—Three different murine models were used in this investigation: 1) severe combined immune deficiency (B6.CB17-Prkdc^scid/SzJ; SCID) mice to study the role of CCKR blockade on orthotopic cancer growth and metastasis independent of immune cells, 2) immune competent Pdx1-Cre/LSL-Kras^G12D transgenic mice for a pancreatic carcinogenesis model to study the role of CCKR blockade on the pancreatic stellate cells and immune cells of the pancreas, and 3) immune competent C57BL/6 mice to study the role of CCKR antagonist in combination with immune checkpoint antibodies on growth and survival of mice bearing syngeneic PDAC tumors. Institutional guidelines for care and use of laboratory animals were followed throughout the study in accordance with protocols approved by the Georgetown University Institutional Animal Use and Care Committee.
(§2) Four weeks after tumor inoculation mice were euthanized, tumors removed and weighed, and the number of metastases counted. TILs were evaluated in tumors of the C57BL/6 mice by immunohistochemistry and fibrosis assessed with Masson's trichrome stain.

[2] = test system: pancreas of Pdx1-Cre/LSL-Kras^G12D transgenic mouse; test: Pancreatic carcinogenesis model, Pdx1-Cre/LSL-Kras^G12D transgenic mice; type: in vivo; conditions: proglumide in drinking water for 4 months
From the text: as §1
The second series of experiments was performed to analyze the role of CCKR antagonist monotherapy on the TILs of the pancreas microenvironment during pancreatic carcinogenesis using the Pdx1-Cre/LSL-Kras^G12D transgenic mouse. After the mice reached 3-4 months of age, when PanINs and fibrosis are established, mice were treated with either proglumide (in the drinking water) or untreated water. After 4 months of therapy, the pancreata were excised and compared to the pancreas of age-matched litter mates of mice on untreated water. […]

Panc02 cells [3] = conditions: 2×10^6 Panc02 cells, vs PBS
Experimental: (§3) Cells were cultured in DMEM: F12 media with 10% FBS. […] In the following series of experiments Panc02 cells (1×10^6 or 2×10^6) were injected either orthotopically or subcutaneously in animals.
(§4) Subcutaneous tumor volumes were measured with calipers weekly in animals bearing subcutaneous tumors using the formula Length×(width)^2×0.5.
(§5) Treatments—Two different CCK receptor antagonists were used in this investigation. […] The other CCK receptor antagonist used was proglumide which is an orally bioavailable nonselective antagonist that blocks both the CCK-A and CCK-B receptors. Proglumide (Tocris Bioscience) was administered in the drinking water at a concentration of 0.1 mg/mL, or approximately 30 mg/kg/d per mouse.
Two immune checkpoint blockade antibodies were used in this investigation. […] The antibody to cytotoxic T-lymphocyte-associated antigen 4 (CTLA-4 Ab; Bio-X cell, West Lebanon, NH) was given at a dose of 200 μg every 3 days by intraperitoneal injections.
Another series of experiments was performed in C57BL/6 mice to evaluate the role of CCKR blockade in combination with immune checkpoint antibody therapy. Each series of experiments was performed using 40 mice with syngeneic murine tumors. […]
Comparisons were made by ANOVA and student's t-test. […] Survival was analyzed by Kaplan Meier analysis and differences by hazard ratios using Prism Software (GraphPad software, Inc., San Diego, CA). […]

CCK-B receptor = biological target: T1, CCK-B receptor (Homo sapiens, UniProt P32239); conditions: cited from earlier work
T1 sequence (P32239 1-447): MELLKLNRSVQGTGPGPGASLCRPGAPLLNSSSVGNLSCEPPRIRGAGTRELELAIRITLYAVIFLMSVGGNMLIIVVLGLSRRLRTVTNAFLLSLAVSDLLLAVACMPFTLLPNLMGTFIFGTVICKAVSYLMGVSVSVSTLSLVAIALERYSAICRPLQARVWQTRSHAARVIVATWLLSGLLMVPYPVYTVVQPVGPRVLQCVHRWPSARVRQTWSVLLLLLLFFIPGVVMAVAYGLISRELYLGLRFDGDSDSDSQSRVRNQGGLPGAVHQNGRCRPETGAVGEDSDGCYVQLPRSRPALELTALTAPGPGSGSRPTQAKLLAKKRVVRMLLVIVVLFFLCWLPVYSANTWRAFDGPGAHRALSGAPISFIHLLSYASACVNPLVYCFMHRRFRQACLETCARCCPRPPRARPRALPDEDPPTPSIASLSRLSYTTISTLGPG

[4] = cited from earlier work
CCK-A receptor = biological target: T2, CCK-A receptor (Homo sapiens, UniProt P32238); conditions: cited from earlier work
T2 sequence (P32238 1-428): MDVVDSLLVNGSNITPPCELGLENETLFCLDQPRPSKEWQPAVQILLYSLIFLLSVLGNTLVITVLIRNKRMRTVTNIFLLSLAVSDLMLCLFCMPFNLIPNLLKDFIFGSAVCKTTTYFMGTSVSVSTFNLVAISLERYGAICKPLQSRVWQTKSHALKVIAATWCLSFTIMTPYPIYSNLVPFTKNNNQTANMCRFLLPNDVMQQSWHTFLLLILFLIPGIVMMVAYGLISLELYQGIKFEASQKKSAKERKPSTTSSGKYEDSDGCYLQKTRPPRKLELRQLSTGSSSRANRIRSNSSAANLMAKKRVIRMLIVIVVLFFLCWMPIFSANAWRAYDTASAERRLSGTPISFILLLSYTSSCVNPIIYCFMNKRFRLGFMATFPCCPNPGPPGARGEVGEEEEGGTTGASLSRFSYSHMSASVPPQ

Panc02 cells [5] = test: Orthotopic Panc02 pancreatic tumors in SCID mice; type: in vivo, mouse
From the text: as §1, §2

Panc02 cells [6] = test: Subcutaneous Panc02 tumors in C57BL/6 mice, CCKR antagonist and PD-1 antibody; type: in vivo, mouse; conditions: vs PBS; for tumor size / tumor volume: Panc02 in C57BL/6, L364,718 4 mg/kg tiw ip, PD-1 antibody 125 μg×3 injections
Experimental: as §3, §5
(§6) Two immune checkpoint blockade antibodies were used in this investigation. The antibody to the programmed cell death protein 1 (PD1-Ab) (Bio X cell, West Lebanon, NH) was administered intraperitoneally to mice at a dose of either 125 μg×3 injections or 200 μg every 3 days.
(§7) Another series of experiments was performed in C57BL/6 mice to evaluate the role of CCKR blockade in combination with immune checkpoint antibody therapy. Each series of experiments was performed using 40 mice with syngeneic murine tumors. […] The primary end point was tumor volume (1,000 mm^3) or mouse survival. Tumors were excised and examined histologically, and by immunohistochemistry, or by flow cytometry for immune cells.
(§8) Tumor sections were also stained with either CD3 antibodies (1:85; DAKO, Carpinteria, CA); CD8 antibodies (1:75; eBioscience, San Diego, CA); CD4 antibodies (1:225; eBioscience), or FoxP3 antibody (1:30; eBioscience) and immunoreactive cells counted manually.

pancreatic primary tumor = conditions: immune competent mouse, 4 mg/kg three times weekly ip; cited from earlier work
pancreatic cancer tumor = conditions: immune deficient nude mouse, 2 mg/kg twice daily; cited from earlier work
Panc02 cells [7] = test: Survival and tumor immune cells of C57BL/6 mice bearing subcutaneous Panc02 tumors, CCKR antagonist and CTLA-4 antibody
Experimental: as §3, §5, §6, §7, §8

[8] = Panc02 tumors, immunohistochemistry

Experimental for mT3 cells: The cell line is also syngeneic to C57BL/6 mice; and therefore, capable of being studied in immune competent mice.
as §4
Proglumide (Tocris Bioscience) was administered in the drinking water at a concentration of 0.1 mg/mL, or approximately 30 mg/kg/d per mouse.
The antibody to the programmed cell death protein 1 (PD1-Ab) (Bio X cell, West Lebanon, NH) was administered intraperitoneally to mice at a dose of either 125 μg×3 injections or 200 μg every 3 days.
In the 4th experiment, the mT3 cells (1×10^5) were injected and mice were treated with PBS, proglumide, the PD-1 antibody, or the combination of both compounds. […] The primary end point was tumor volume (1,000 mm^3) or mouse survival. Tumors were excised and examined histologically, and by immunohistochemistry, or by flow cytometry for immune cells.
Some tumors were stained with an antibody to α-SMA (Abeam; Ab124964 at 1:6000). Tumor sections were also stained with either CD3 antibodies (1:85; DAKO, Carpinteria, CA); CD8 antibodies (1:75; eBioscience, San Diego, CA); CD4 antibodies (1:225; eBioscience), or FoxP3 antibody (1:30; eBioscience) and immunoreactive cells counted manually.

## CCCN(CCC)C(=O)C(CCC(=O)O)NC(=O)c1ccccc1 (stereo not shown) [proglumide]
Panc02 cells [1]; orthotopic Panc02 tumors, vs PBS/vehicle
  fibrosis of tumor microenvironment (Masson's trichrome stain): marked decreased fibrosis
[2]; vs age-matched controls
  fibrosis of the pancreas microenvironment (trichrome stain): significantly diminished fibrosis; also recorded: significantly reversed fibrosis
[2]; vs untreated water
  CD3+ cells in mouse pancreas: significant increase in the CD3+ cells
Panc02 cells [3]
  prolonged life: 5 days
mT3 cells; mT3 pancreatic cancers, average
  survived longer than PBS control mice: 12 days
mT3 cells; mT3 tumors, vs PBS
  number of Foxp3+ cells (Tregs): decreased
  tumor-associated fibrosis by Masson's trichrome stain: noticeably less
  α-SMA immunoreactivity (activated fibroblasts): somewhat decreased with proglumide, but this change was not statistically significant
mT3 cells; mT3 tumors, vs PBS controls and PD-1 monotherapy, p<0.01
  quantitative analysis of intratumoral fibrosis: significantly less fibrosis
mT3 cells; proglumide 0.1 mg/mL drinking water, PD-1 antibody 200 μg every three days, vs PBS
  growth of mT3 tumors / tumor size: significantly slowed tumor growth; also recorded: significantly slower
CCK-B receptor
  antagonism at the CCK-B receptor: inhibitory properties at both the CCK-A and CCK-B receptor types
[4]
  water solubility: water soluble
CCK-A receptor
  antagonism at the CCK-A receptor: weaker nonselective CCK antagonist

## CN1C(=O)[C@@H](NC(=O)c2cc3ccccc3[nH]2)N=C(c2ccccc2)c2ccccc21 [L364,718, Devazepide]
Panc02 cells [5]; orthotopic 10^6 Panc02 cells, 4 mg/kg three times a week ip, four weeks, vs PBS
  primary tumor weight: significantly reduced the primary tumor weight
Panc02 cells [5]; orthotopic Panc02, 4 mg/kg three times a week ip, 75% of untreated SCID mice had metastases
  metastases: no metastases
Panc02 cells [1]; C57BL/6 mice, orthotopic Panc02, 4 mg/kg three times a week ip
  metastases: decreased metastases
Panc02 cells [1]; C57BL/6 mice, orthotopic Panc02, 4 mg/kg three times a week ip, vs PBS
  primary tumor size: did not alter the primary tumor size
Panc02 cells [1]; orthotopic Panc02 tumors, C57BL/6 mice, vs PBS
  CD3+ lymphocytes in tumor by immunohistochemistry: significant increase in CD3+ lymphocytes
Panc02 cells [6]
  tumor size / tumor volume: did not significantly decrease the tumor size
Panc02 cells [6]; listed as L-364,718
  tumor size / tumor volume: not significantly smaller
Panc02 cells [6]; Panc02 tumors
  CD4+ cells in tumor (immunohistochemistry): increased
  CD8+ cells in tumor (immunohistochemistry): increased
Pancreatic primary tumor
  inhibition of pancreatic primary tumor growth: insufficient dose, by itself, to inhibit pancreatic primary tumor growth
  number of metastases: did decrease the number of metastases
Pancreatic cancer tumor
  pancreatic cancer tumor size: significant reduction in pancreatic cancer tumor size
Panc02 cells [7]; [8]
  average CD4+ cell numbers in tumor: increased
  average CD8+ cell numbers in tumor: increased
Panc02 cells [7]; subcutaneous Panc02, C57BL/6, all PBS controls had died by day 50
  mice still alive at day 50: 42%
